Assay [1] is described as follows: Binding affinity towards Protease using PNA assay in rats.
Assay [2] is described as follows: Cytotoxic activity against Protease in […] Huh-7 cells.
A short description of assay [3]: Cytotoxic activity against Protease in […] Huh-7 cells at 100 uM concentration.
The nature of assay [4]: Cytotoxic activity against Protease in […] Huh-7 cells. The source holds these as a separate data set.

*1 amine or outer side, *2 acyl side, *3 side chain or, on linkers, in order; H or OH if unused. Where a SMILES comes first, the peptide text is derived from it. [ ]: non-standard residue; d: D form. The star is where a group is joined. Pro(3S,4R-(CH2)3) = O=C(O)[C@H]1NC[C@@H]2CCC[C@@H]21; Pyrazinecarbonyl = O=C(c1cnccn1)*; X1 = CCCC(N[*:1])C(=O)C(=O)[*:2]

For the compound `CCCC(NC(=O)[C@@H]1[C@H]2CCC[C@H]2CN1C(=O)[C@@H](NC(=O)[C@@H](NC(=O)c1cnccn1)C(C)C)C(C)C)C(=O)C(=O)N[C@@H](Cc1ccccc1)C(=O)O` (stereo partly drawn) [2-(3-{[(1S,5S,6R)-2-((S)-3-Methyl-2-{(S)-3-methyl-2-[(pyrazine-2-carbonyl)-amino]-butyrylamino}-butyryl)-octahydro-cyclopenta[c]pyrrole-1-carbonyl]-amino}-2-oxo-hexanoylamino)-3-phenyl-propionic acid] (Pyrazinecarbonyl-VV[Pro(3S,4R-(CH2)3)][X1]F-OH), the inhibition constant (Ki) (usually the equilibrium dissociation constant of an inhibitor or competing ligand from its target) in assay [1] was 0.068 µM. Moreover, in assay [2], the IC50 (commonly the point on the concentration scale where inhibition reaches its midpoint) was greater than 100 µM.
The corresponding values for `CCCC(NC(=O)[C@@H]1[C@H]2CC[C@@H](OCOC)C2CN1C(=O)[C@@H](NC(=O)[C@@H](NC(=O)c1cnccn1)C(C)C)C(C)C)C(=O)C(=O)NC1CC1` (stereo partly drawn) [(1S,5S)-4-Methoxymethoxy-2-((S)-3-methyl-2-{(S)-3-methyl-2-[(pyrazine-2-carbonyl)-amino]-butyrylamino}-butyryl)-octahydro-cyclopenta[c]pyrrole-1-carboxylic acid ((R)-1-cyclopropylaminooxalyl-butyl)-amide] are 0.415 µM and greater than 100 µM.
For `CCCC(NC(=O)[C@@H]1[C@H]2CC[C@@H](OCOC)C2CN1C(=O)[C@@H](NC(=O)[C@@H](NC(=O)c1cnccn1)C(C)C)C(C)C)C(=O)C(=O)N[C@@H](C)c1ccccc1` (stereo partly drawn) [(1S,5S)-4-Methoxymethoxy-2-((S)-3-methyl-2-{(S)-3-methyl-2-[(pyrazine-2-carbonyl)-amino]-butyrylamino}-butyryl)-octahydro-cyclopenta[c]pyrrole-1-carboxylic acid [(R)-1-((S)-1-phenyl-ethylaminooxalyl)-butyl]-amide], the Ki in assay [1] is 0.332 µM. The same compound registered an IC50 in assay [3] of 33 µM.
The compound `CCCC(NC(=O)[C@@H]1[C@H]2CC=C[C@H]2CN1C(=O)[C@@H](NC(=O)[C@@H](NC(=O)c1cnccn1)C(C)C)C(C)C)C(=O)C(=O)NC1CC1` (stereo partly drawn) [(1S,5S,6R)-2-((S)-3-Methyl-2-{(S)-3-methyl-2-[(pyrazine-2-carbonyl)-amino]-butyrylamino}-butyryl)-1,2,3,3a,6,6a-hexahydro-cyclopenta[c]pyrrole-1-carboxylic acid (1-cyclopropylaminooxalyl-butyl)-amide] had a Ki in assay [1] of 0.09 µM. The IC50 in assay [2] was greater than 100 µM.
On to `CCCC(NC(=O)[C@@H]1[C@H]2CC=C[C@H]2CN1C(=O)[C@@H](NC(=O)[C@@H](NC(=O)c1cnccn1)C(C)C)C(C)C)C(=O)C(=O)N[C@@H](C)c1ccccc1` (stereo partly drawn) [(1S,5S,6R)-2-((S)-3-Methyl-2-{(S)-3-methyl-2-[(pyrazine-2-carbonyl)-amino]-butyrylamino}-butyryl)-1,2,3,3a,6,6a-hexahydro-cyclopenta[c]pyrrole-1-carboxylic acid [1-((S)-1-phenyl-ethylaminooxalyl)-butyl]-amide], for which the Ki in assay [1] was found to be 0.88 µM.
On the same count and under the same terms, the figure for `CCCC(NC(=O)[C@@H]1[C@H]2CC=C[C@H]2CN1C(=O)[C@@H](NC(=O)[C@@H](NC(=O)c1cnccn1)C(C)C)C(C)C)C(=O)C(=O)N[C@@H](C)CC` (stereo partly drawn) [(1S,5S,6R)-2-((S)-3-Methyl-2-{(S)-3-methyl-2-[(pyrazine-2-carbonyl)-amino]-butyrylamino}-butyryl)-1,2,3,3a,6,6a-hexahydro-cyclopenta[c]pyrrole-1-carboxylic acid [1-((S)-sec-butylaminooxalyl)-butyl]-amide] is 0.625 µM.
The compound `CCCC(NC(=O)[C@@H]1[C@H]2CCC(F)(F)[C@H]2CN1C(=O)[C@@H](NC(=O)[C@@H](NC(=O)c1cnccn1)C(C)C)C(C)C)C(=O)C(=O)NC1CC1` (stereo partly drawn) [(1S,5S,6R)-4,4-Difluoro-2-((S)-3-methyl-2-{(S)-3-methyl-2-[(pyrazine-2-carbonyl)-amino]-butyrylamino}-butyryl)-octahydro-cyclopenta[c]pyrrole-1-carboxylic acid (1-cyclopropylaminooxalyl-butyl)-amide] yielded a Ki in assay [1] of 0.37 µM. Also, the IC50 in assay [2] was greater than 100 µM.
Taken in the same sequence, the figures for `CCCC(NC(=O)[C@@H]1[C@H]2CC[C@H](F)[C@H]2CN1C(=O)[C@@H](NC(=O)[C@@H](NC(=O)c1cnccn1)C(C)C)C(C)C)C(=O)C(=O)NC1CC1` (stereo partly drawn) [(1S,5S,6R)-4-Fluoro-2-((S)-3-methyl-2-{(S)-3-methyl-2-[(pyrazine-2-carbonyl)-amino]-butyrylamino}-butyryl)-octahydro-cyclopenta[c]pyrrole-1-carboxylic acid ((S)-1-cyclopropylaminooxalyl-butyl)-amide] were 0.3 µM and greater than 100 µM.
With `CCCC(NC(=O)[C@@H]1[C@H]2CC[C@H](F)[C@H]2CN1C(=O)[C@@H](NC(=O)[C@@H](NC(=O)c1cnccn1)C(C)C)C(C)C)C(=O)C(=O)N[C@@H](C)c1ccccc1` (stereo partly drawn) [(1S,5S,6R)-4-Fluoro-2-((S)-3-methyl-2-{(S)-3-methyl-2-[(pyrazine-2-carbonyl)-amino]-butyrylamino}-butyryl)-octahydro-cyclopenta[c]pyrrole-1-carboxylic acid [(S)-1-((S)-1-phenyl-ethylaminooxalyl)-butyl]-amide], the Ki in assay [1] was determined as 0.315 µM.
Compound `CCCC(NC(=O)C1[C@H]2CCC(=O)[C@H]2CN1C(=O)[C@@H](NC(=O)[C@@H](NC(=O)c1cnccn1)C(C)C)C(C)C)C(=O)C(=O)Nc1ccccc1` (stereo partly drawn) [(3aR,5S)-2-((S)-3-Methyl-2-{(S)-3-methyl-2-[(pyrazine-2-carbonyl)-amino]-butyrylamino}-butyryl)-4-oxo-octahydro-cyclopenta[c]pyrrole-1-carboxylic acid (1-phenylaminooxalyl-butyl)-amide] registered a Ki in assay [1] of 0.017 µM. The compound also registered an IC50 in assay [2] greater than 100 µM.
The corresponding values for `CCCC(NC(=O)C1[C@H]2CCC(=O)[C@H]2CN1C(=O)[C@@H](NC(=O)[C@@H](NC(=O)c1cnccn1)C(C)C)C(C)C)C(=O)C(=O)NC1CC1` (stereo partly drawn) [(5S,6R)-2-((S)-3-Methyl-2-{(S)-3-methyl-2-[(pyrazine-2-carbonyl)-amino]-butyrylamino}-butyryl)-4-oxo-octahydro-cyclopenta[c]pyrrole-1-carboxylic acid (1-cyclopropylaminooxalyl-butyl)-amide] are 0.51 µM and greater than 100 µM.
`CCCC(NC(=O)[C@@H]1[C@H]2CCC(F)(F)[C@H]2CN1C(=O)[C@@H](NC(=O)[C@@H](NC(=O)c1cnccn1)C(C)C)C(C)C)C(=O)C(=O)N[C@@H](Cc1ccccc1)C(=O)O` (stereo partly drawn) [(S)-2-(3-{[(1S,5S,6R)-4,4-Difluoro-2-((S)-3-methyl-2-{(S)-3-methyl-2-[(pyrazine-2-carbonyl)-amino]-butyrylamino}-butyryl)-octahydro-cyclopenta[c]pyrrole-1-carbonyl]-amino}-2-oxo-hexanoylamino)-3-phenyl-propionic acid] showed a Ki in assay [1] of 0.176 µM. In assay [4], the IC50 is greater than 100 µM.
Compound `CCCC(NC(=O)[C@@H]1[C@H]2CC[C@H](F)[C@H]2CN1C(=O)[C@@H](NC(=O)[C@@H](NC(=O)c1cnccn1)C(C)C)C(C)C)C(=O)C(=O)N[C@@H](Cc1ccccc1)C(=O)O` (stereo partly drawn) [(S)-2-((S)-3-{[(1S,5S,6R)-4-Fluoro-2-((S)-3-methyl-2-{(S)-3-methyl-2-[(pyrazine-2-carbonyl)-amino]-butyrylamino}-butyryl)-octahydro-cyclopenta[c]pyrrole-1-carbonyl]-amino}-2-oxo-hexanoylamino)-3-phenyl-propionic acid] had a Ki in assay [1] of 0.082 µM. In assay [4], this compound returned an IC50 greater than 100 µM.

The values are drawn from BindingDB's records for doi:10.1016/j.bmcl.2003.09.074 (Eli Lilly, 2003).
